Assay results published in patent US6989386B2, “Pharmaceutically active ornithine derivatives, ammonium salts thereof and methods of making same” (Dana-Farber Cancer Institute, priority 2002, dated 2006).
Each block holds one compound with its values, some of them ahead of it.

Experiments:
cell growth in culture = details: reported, Rosowsky et al., J. Med. Chem. 1986; cited from earlier work
[1] = tested on: folylpolyglutamate synthetase (FPGS); details: reported, Rosowsky et al., J. Med. Chem. 1986; cited from earlier work
[2] = biological target: T1, dihydrofolate reductase (DHFR) (Mus musculus, UniProt P00375); details: reported, Rosowsky et al., J. Med. Chem. 1986; cited from earlier work
T1 sequence (P00375 1-187): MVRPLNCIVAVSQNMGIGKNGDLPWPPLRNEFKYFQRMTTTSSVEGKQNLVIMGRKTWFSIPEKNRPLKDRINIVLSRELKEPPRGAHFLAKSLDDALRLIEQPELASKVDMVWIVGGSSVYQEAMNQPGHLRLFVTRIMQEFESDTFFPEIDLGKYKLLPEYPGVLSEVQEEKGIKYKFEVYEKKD

Structure (SMILES): NCCC[C@H](NC(=O)c1ccc(NCc2cnc3nc(N)nc(N)c3n2)cc1)C(=O)O [APA-L-Orn, N^α-(4-amino-4-deoxypteroyl)-L-ornithine]
Inhibition of cell growth in culture (cell growth in culture): relatively inactive
Inhibition of folylpolyglutamate synthetase (FPGS) [1]: potent inhibitor
Inhibition of dihydrofolate reductase (DHFR) [2]: potent inhibitor

Product decomposition on lyophilization of the ammonium hydroxide solution (lyophilization of dilute ammonium hydroxide solution): minimal
Structure (SMILES): N.N.Nc1nc(N)c2nc(CNc3ccc(C(=O)N[C@@H](CCCNC(=O)c4ccccc4C(=O)O)C(=O)O)cc3)cnc2n1 [compound 8, N^α-(4-Amino-4-deoxypteroyl)N^δ-hemiphthaloyl-L-ornithine ammonium salt]

Stability when dissolved in dilute ammonium hydroxide (dilute ammonium hydroxide solution): relatively stable
Structure (SMILES): Nc1nc(N)c2nc(CNc3ccc(C(=O)N[C@@H](CCCNC(=O)c4ccccc4C(=O)O)C(=O)O)cc3)cnc2n1 [compound 7, N^α-(4-Amino-4-deoxypteroyl)-N^δ-hemiphthaloyl-L-ornithine]
